Source: ChEMBL document CHEMBL1201862, “PubChem BioAssay data set” (2004)
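Where inhibition never reached the appropriate level, the endpoint shown equals the highest concentration tested. Otherwise, values were interpolated linearly from a five-concentration, 48-hour dose response in 96-well plates. GI50 = concentration required for 50% inhibition of growth.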 Activity calls are given as the source filed them. Cut-off read from the data, not from the text of the source: active = GI50 up to about 1.1 µM and inactive = higher.

What was measured:
Experiment in all cases: NCI tumour cell line growth inhibition, 48 h
[1] = test system: SK-MEL-2
[2] = test system: HCT-15
[3] = test system: MCF7
[4] = test system: MOLT-4
[5] = test system: OVCAR-5
[6] = test system: PC-3
[7] = test system: A549
[8] = test system: OVCAR-3
[9] = test system: HT-29
[10] = test system: TK-10
[11] = test system: MDA-MB-435
[12] = test system: NCI-H522
[13] = test system: HCT-116
[14] = test system: SF-295
[15] = test system: EKVX
[16] = test system: SF-268
[17] = test system: T47D
[18] = test system: SF-539
[19] = test system: DU-145

CC[n+]1[b-](C(C)(C)C)n(/N=C/C(C)(C)C)[b-](C(C)(C)C)[n+]1CC
GI50 [1]: 70.3 µM (inactive)
GI50 [2]: > 100 µM
GI50 [3]: > 100 µM (inactive)
GI50 [4]: > 100 µM (inactive)
GI50 [5]: > 100 µM (inactive)
GI50 [6]: > 100 µM (inactive)
GI50 [7]: > 100 µM (inactive)
GI50 [8]: > 100 µM (inactive)
GI50 [9]: > 100 µM (inactive)
GI50 [10]: > 100 µM (inactive)
GI50 [11]: > 100 µM (inactive)
GI50 [12]: > 100 µM (inactive)
GI50 [13]: > 100 µM (inactive)
GI50 [14]: > 100 µM (inactive)
GI50 [15]: > 100 µM (inactive)
GI50 [16]: > 100 µM (inactive)
GI50 [17]: > 100 µM (inactive)
GI50 [18]: > 100 µM (inactive)

CC(=O)Oc1ccc2cc(Oc3cc(Cl)c(Cl)cc3Cl)c(=O)oc2c1
GI50 [2]: 13.1 µM
GI50 [3]: 24.2 µM (inactive)
GI50 [4]: 11.9 µM (inactive)
GI50 [5]: 18.5 µM (inactive)
GI50 [6]: 16.1 µM (inactive)
GI50 [7]: 16.4 µM (inactive)
GI50 [8]: 16 µM (inactive)
GI50 [19]: 25.3 µM (inactive)
GI50 [9]: 16.8 µM (inactive)
GI50 [10]: 24.8 µM (inactive)
GI50 [12]: 16.7 µM (inactive)
GI50 [13]: 14.9 µM (inactive)
GI50 [14]: 22.4 µM (inactive)
GI50 [15]: 24.4 µM (inactive)
GI50 [16]: 26.9 µM (inactive)
GI50 [17]: 27.2 µM (inactive)
GI50 [18]: 16 µM (inactive)

O=C1/C(=C/c2cccc3ccccc23)Cc2ccccc21
GI50 [2]: 34.9 µM
GI50 [3]: 5.93 µM (inactive)
GI50 [4]: 40.5 µM (inactive)
GI50 [5]: 29.2 µM (inactive)
GI50 [6]: 16.9 µM (inactive)
GI50 [7]: 38.4 µM (inactive)
GI50 [8]: 27.1 µM (inactive)
GI50 [9]: 32.7 µM (inactive)
GI50 [10]: 49.2 µM (inactive)
GI50 [15]: 26.3 µM (inactive)
GI50 [16]: 22.6 µM (inactive)
GI50 [18]: 27.2 µM (inactive)

CCOC(=O)c1sc2nc(SC)nc3c2c1NCN3c1ccccc1Cl
GI50 [1]: 97.3 µM (inactive)
GI50 [2]: 71.1 µM
GI50 [4]: > 100 µM (inactive)
GI50 [5]: > 100 µM (inactive)
GI50 [6]: 29.4 µM (inactive)
GI50 [7]: 38.7 µM (inactive)
GI50 [8]: 84.5 µM (inactive)
GI50 [19]: 75.3 µM (inactive)
GI50 [9]: 72.1 µM (inactive)
GI50 [10]: 37.8 µM (inactive)
GI50 [11]: > 100 µM (inactive)
GI50 [12]: 26.5 µM (inactive)
GI50 [13]: 31.8 µM (inactive)
GI50 [14]: 52.6 µM (inactive)
GI50 [16]: 38.7 µM (inactive)
GI50 [17]: 23.7 µM (inactive)

CC(C)CCC[C@@H](C)[C@H]1CC[C@H]2[C@@H]3CC=C4C[C@@H](OC(=O)c5cccc6c(=O)c7ccccc7[nH]c56)CC[C@]4(C)[C@H]3CC[C@]12C
GI50 [1]: > 75 µM (inactive)
GI50 [2]: > 75 µM
GI50 [3]: > 75 µM (inactive)
GI50 [4]: > 75 µM (inactive)
GI50 [5]: > 75 µM (inactive)
GI50 [6]: > 75 µM (inactive)
GI50 [7]: > 75 µM (inactive)
GI50 [8]: > 75 µM (inactive)
GI50 [9]: > 75 µM (inactive)
GI50 [10]: > 75 µM (inactive)
GI50 [11]: > 75 µM (inactive)
GI50 [12]: > 75 µM (inactive)
GI50 [14]: > 75 µM (inactive)
GI50 [15]: > 75 µM (inactive)
GI50 [16]: > 75 µM (inactive)
GI50 [17]: > 75 µM (inactive)
GI50 [18]: > 75 µM (inactive)

COC(=O)C1(C(=O)OC)CC2=C(S(=O)(=O)c3ccccc3)C[C@@H](C#N)[C@H]2C1
GI50 [1]: > 100 µM (inactive)
GI50 [2]: 37.9 µM
GI50 [3]: 47.5 µM (inactive)
GI50 [4]: > 100 µM (inactive)
GI50 [5]: > 100 µM (inactive)
GI50 [6]: > 100 µM (inactive)
GI50 [7]: > 100 µM (inactive)
GI50 [8]: 25.2 µM (inactive)
GI50 [19]: > 100 µM (inactive)
GI50 [9]: > 100 µM (inactive)
GI50 [10]: > 100 µM (inactive)
GI50 [11]: > 100 µM (inactive)
GI50 [12]: 43.7 µM (inactive)
GI50 [13]: > 100 µM (inactive)
GI50 [14]: > 100 µM (inactive)
GI50 [15]: > 100 µM (inactive)
GI50 [16]: > 100 µM (inactive)
GI50 [18]: > 100 µM (inactive)

CC(C)(C)OC(=O)NC(Cc1ccc(O)cn1)C(=O)O (stereo not drawn)
GI50 [2]: > 100 µM
GI50 [3]: > 100 µM (inactive)
GI50 [4]: > 100 µM (inactive)
GI50 [5]: > 100 µM (inactive)
GI50 [6]: > 100 µM (inactive)
GI50 [7]: > 100 µM (inactive)
GI50 [8]: > 100 µM (inactive)
GI50 [19]: > 100 µM (inactive)
GI50 [9]: > 100 µM (inactive)
GI50 [10]: > 100 µM (inactive)
GI50 [11]: > 100 µM (inactive)
GI50 [12]: > 100 µM (inactive)
GI50 [13]: > 100 µM (inactive)
GI50 [14]: > 100 µM (inactive)
GI50 [15]: > 100 µM (inactive)
GI50 [16]: > 100 µM (inactive)
GI50 [18]: > 100 µM (inactive)

O=C1/C(=C/c2cccc([N+](=O)[O-])c2)Cc2ccccc21
GI50 [1]: > 100 µM (inactive)
GI50 [2]: 72.8 µM
GI50 [3]: > 100 µM (inactive)
GI50 [4]: > 100 µM (inactive)
GI50 [5]: > 100 µM (inactive)
GI50 [6]: > 100 µM (inactive)
GI50 [7]: 91.6 µM (inactive)
GI50 [8]: > 100 µM (inactive)
GI50 [19]: > 100 µM (inactive)
GI50 [9]: > 100 µM (inactive)
GI50 [10]: > 100 µM (inactive)
GI50 [11]: > 100 µM (inactive)
GI50 [12]: 59.3 µM (inactive)
GI50 [13]: 39.7 µM (inactive)
GI50 [14]: > 100 µM (inactive)
GI50 [15]: > 100 µM (inactive)
GI50 [16]: > 100 µM (inactive)
GI50 [18]: > 100 µM (inactive)
